Assay results as given in patent US7534769B2, “Compositions and methods for enhancing delivery of therapeutic agents to cells” (Canji, Inc., priority 1996, dated 2009).

Legend:
pig urothelium = assay: rAd-βgal gene transfer in chronically catheterized adult pig bladder; assay type: in vivo
Method: To simulate volumes expected for clinical investigation, the 7 mM Big CHAP (CALBIOCHEM®) formulation was tested in a chronically catheterized adult pig model in collaboration with SPRI Drug Safety and Metabolism. rAd-βgal (1×10^11 PN/ml) was formulated in VPBS or 7 mM Big CHAP (CALBIOCHEM®). A volume of 50 ml was injected via the catheter into the bladder of the conscious animals. The instilled material was retained for 2 hr. The animals were sacrificed 48 hr later, and a central section of the bladder was harvested and stained for β-galactosidase expression.

[1] = tested on: bladder, kidney and liver homogenates; assay: ACNRB transgene expression by RT-PCR after intravesical administration; assay type: in vivo, mouse; conditions: ACNRB 4×10^10 PN/mL in 22% (v/v) ethanol or 3 mM Big CHAP versus VPBS, 48 hours
Method: After the virus was retained in the bladder for 45 minutes, the animals were permitted to recover and void. […] Following amplification (30 cycles) RT-PCR products were separated on a 10% polyacrylamide gel, stained with ethidium bromide, and photographed. […] Untreated samples and bladder samples without the reverse transcriptase (RT) provided controls for contaminating DNA.
The instilled material was retained in the bladder for approximately 45 minutes, and animals were permitted to recover from the procedure. Mice were sacrificed 1, 2, 3, 4, 5, 6, 7, and 14 days after administration (N=4/time) for analysis. Bladders, livers, and kidneys were harvested and snap frozen in liquid nitrogen for subsequent analysis.
After the virus was retained in the bladder for 45 minutes, the animals were permitted to recover. […] Transgene expression was determined using RT-PCR. Tissues were rinsed in RNAse free water, homogenized, digested in Tri-Reagent (Molecular Research Center), and total cellular RNA extracted. […] RT-PCR was performed in the Perkin Elmer 9600 GeneAmp PCR System. Cycling conditions were 10 min at 65° C., 8 min at 50° C., 5 min at 95° C. 32 cycles of PCR were performed, each cycle consisting of 30 sec at 94° C., 30 sec at 58° C., and 30 sec at 72° C. The 32nd cycle included a 10 min elongation step at 72° C. to ensure full extension of incomplete DNA fragments.

bladder epithelium [2] = assay: Effect of Big CHAP sources, purified Big CHAP and impurities on rAd-βgal gene transfer to bladder epithelium; assay type: in vivo, rat; conditions: Big CHAP at 6 mg/ml
Method: Alternate commercial sources of Big CHAP (BC) were tested for the ability to enhance rAd (recombinant adenovirus) mediated gene transfer and expression, essentially according to the method described above in Example 8.
The results are depicted in FIG. 17.
rAd-βgal was formulated in 30 mg/ml of the column chromatography purified material of both BCs and gene transfer to the bladder epithelium tested as described above.
Three impurities of BC (CALBIOCHEM®) were detected by TLC (FIG. 15) and isolated by column chromatography for gene transfer studies. Impurity I and a mixture of impurity II and impurity III were diluted in VPBS (0.6 mg/ml or 6 mg/ml) to test their efficiency in improving rAd mediated gene transfer to the bladder epithelium. […] Positive control formulation (BC, CALBIOCHEM®, upper panel, left), and the negative control formulations (BC—CALBIOCHEM®, column chromatography purified and BC—Sigma) were used at a concentration of 6 mg/ml (upper panel, right).
In this experiment, 10 mg/ml of BC (Sigma, FIG. 20 upper middle panel) was reconstituted with Impurity III (upper right panel), impurity II (lower left panel), or synthesized analog of impurity III (lower right panel). rAd-βgal, 1×10^11 PN/ml, was prepared in the spiked formulations and administered intravesically as described above.
Calbiochem Big CHAP was fractionated by column chromatography to obtain essentially pure impurities “1”, “2”, and “3” for biological testing as well as structural analysis.

bladder tissue = assay: Cystitis evaluation of formulations in mice, bladder histopathology; conditions: 80 μL intravesical, 7-day interval; 7 mM Big CHAP, 0.05 mM TRITON X-100 or 22% ethanol
Method: The formulations were administered intravesically in a volume of 80 μL, and animals were observed over a 7-day interval. After sacrifice, bladders were paraffin-embedded, sectioned, and stained with hematoxylin and eosin for pathologic evaluation.

bladder tumor tissue = assay: Gene transfer to BBN-induced bladder tumors (transitional cell carcinoma model); assay type: in vivo, rat; conditions: rAd-βgal 1×10^11 PN/ml in 4 mM Big CHAP compared to VPBS, 48 hr
Method: Because initial investigations focused on animals with intact bladder epithelium, evaluated adenovirus mediated gene transfer in an animal model of transitional cell carcinoma was also studied. Tumors were induced in male Fisher rats by addition of 0.05% BBN in the drinking water for six months. rAd-βgal (1×10^11 PN/ml), formulated in 4 mM Big CHAP (CALBIOCHEM®) or VPBS was instilled into the bladder for 45 minutes by direct injection. β-gal expression was evaluated 48 hr after treatment. Consistent with earlier experiments using non-tumor bearing animals, gene transfer to tumor tissue was improved with the Big CHAP (CALBIOCHEM®) formulation compared to the VPBS formulation (FIG. 10).
Gene transfer of rAd carrying the p53 gene (rAd-p53) (Wills et al., Human Gene Therapy 5:1079-1088 (1994)) was also tested in this animal model of bladder cancer. Briefly, bladder tumors were induced in female Fisher rates (Charles River) by addition of 0.05% BBN (N-butyl-N-N(4-hydroxybutyl)nitrosamine) in the drinking water for three months. rAd-p53 (1×10^11 PN/ml) was formulated in 7 mM Big CHAP (CALBIOCHEM®). Under isoflurane anesthesia a catheter (24G) was inserted into the bladder for administration. rAd-p53 was instilled into the bladder for 45 minutes. The animals were then allowed to recover from anesthesia. […] No staining was detected in tumor tissue from untreated animals.

bladder epithelium [3] = assay: rAd-βgal gene transfer to bladder epithelium in detergent formulations, Xgal staining score and gross pathology
Method: rAd-βgal was formulated in different detergents at their critical micellization concentration to evaluate efficiency of gene transfer to the bladder epithelium. Female rats (about 200 g b/w, Harlan Sprague Dawley) were anesthetized with isoflurane and received a single intravesical administration of rAd-βgal (1×10^11 PN/ml) in different detergent formulations (see Table I). Before instillation, bladders were flushed with PBS and then emptied. rAd-βgal was then instilled in a volume of 0.5 ml. The instilled solution was retained in the bladder for 45 minutes. The bladders were then flushed with PBS, and the animals were permitted to recover from the procedure. 48 hours after administration, the rats were sacrificed, the bladders harvested, and fixed in formalin. After fixation, the bladders were opened longitudinally so that the urothelium was exposed to the chromogen (Xgal), that is converted to a blue color, if reporter gene (β-galactosidase) expression is present. The luminal epithelial surface of the whole bladder was photographed an blue staining scored: + (minimal staining), ++ (moderate staining), +++ intense staining covering the whole bladder epithelial surface.
Briefly, in anaesthetized female rats rAd-βgal (1×10^11 PN/ml) was administered into the bladder via an intravesical catheter. rAd-βgal was formulated in different concentrations of Big CHAP (CALBIOCHEM®). A volume of 0.5 ml was injected and remained instilled in the bladder for 45 minutes. The animals were sacrificed 48 hours later, the bladder fixed in 4% formalin/glutaraldehyde, opened longitudinally, and the β-galactosidase enzyme activity measured using Xgal substrate. The intensity of blue staining correlates with the βgal-transgene expression.
Effects of higher recombinant adenovirus concentrations were also tested. Briefly, in anaesthetized female rats different concentrations of rAd-βgal, formulated in 7 mM Big CHAP (CALBIOCHEM®) were administered into the bladder via an intravesical catheter. The animals were sacrificed 48 hours later, the bladder fixed in 4% formalin/glutaraldehyde, opened longitudinally, and Xgal stained.

C[C@H](CCC(=O)N(CCCNC(=O)[C@H](O)[C@@H](O)[C@H](O)[C@H](O)CO)CCCNC(=O)[C@H](O)[C@@H](O)[C@H](O)[C@H](O)CO)[C@H]1CC[C@H]2[C@@H]3[C@H](O)C[C@@H]4C[C@H](O)CC[C@]4(C)[C@H]3C[C@H](O)[C@]12C [Big CHAP (CALBIOCHEM®), N,N,bis-(3-D-gluconamidopropyl)-cholamide]
transduction of epithelial layers (histologic evaluation) (pig urothelium; 7 mM Big CHAP): transduction of several epithelial layers
intensity of gene expression (β-galactosidase) (pig urothelium; rAd-βgal 1×10^11 PN/ml, 7 mM Big CHAP compared to VPBS, 50 ml, 2 hr, 48 hr): An increase in the intensity of gene expression
ACNRB expression in bladder (RT-PCR) [1]: enhanced expression
rAd mediated gene transfer and expression (bladder epithelium [2]; listed as BC (CALBIOCHEM®)): did substantially enhance gene transfer and expression
rAd mediated gene transfer and expression (bladder epithelium [2]; listed as Big CHAP from CALBIOCHEM®): greater enhancement of gene transfer
macrophage infiltration into the bladder tissue / cystitis (bladder tissue): Only a slight macrophage infiltration
gene transfer to tumor tissue (bladder tumor tissue): improved
cystitis (bladder epithelium [3]; 17.5 mM Big CHAP): induced cystitis in some of the animals tested
gene transfer or expression (bladder epithelium [3]; 17.5 mM Big CHAP): did not notably improve gene transfer or expression
gene transfer (bladder epithelium [3]; 3.5-7 mM Big CHAP): significantly improved gene transfer
cystitis (bladder epithelium [3]; Big CHAP formulation that enhanced gene transfer): minimal cystitis
gene transfer to the bladder epithelium (Table I) (bladder epithelium [3]; detergents at their critical micellization concentration): enhanced gene transfer dramatically
gene transfer to the epithelium, dependence on Big CHAP concentration (bladder epithelium [3]; rAd-βgal 1×10^11 PN/ml, different concentrations of Big CHAP): concentration-dependent increase of gene transfer
β-galactosidase expression, 3.5 mM compared with 7 mM formulation (bladder epithelium [3]; rat, in vivo): similar
